Reference: patent US20220280507A1, “USES OF 5-METHYLTETRAHYDROFOLATE AND ITS COMPOSITION” (Lianyungang Jinkang Hexin Pharmaceutical Co., Ltd., priority 2019, published 2022)

Assays:
TNF-α [1] = test: LPS-induced inflammatory response in astrocytes, TNF-α release (ELISA); type: cell-based, Kunming mice; settings: culture supernatant, LPS 1 μg·ml-1 + substance 10 μg·ml-1, 24 h, n=6
Excerpt: (§1) Experiment 9 Inhibition of 5-Methyltetrahydrofolate and Curcumin on LPS-Induced Inflammatory Response in Astrocytes
(§2) The cerebral cortex of Kunming mice at 1˜2 d was taken out under aseptic conditions, washed 3 times with cold PBS after removing residual meninges and blood vessels, prepared into single cell suspension by blowing, centrifuged, the supernatant was discarded, and the precipitant was resuspended in AST basic medium (high-sugar DMEM containing 10% FBS). The suspension was inoculated into a culture flask coated with poly-L-lysine (0.1 mg/ml), and cultured in a CO2 incubator. After 24 h, tissue debris and non-adherent cells were removed by replacing the medium. Afterwards, the medium was replaced every 3 days until the cells reached 80% confluence, then the flask was placed on a constant temperature rotary shaker, where the suspension was centrifuged at 180 r/min, 37° C. for 18 h to remove oligodendrocytes and microglia from the upper layer. Then trypsin digestion was used for subculture. […]
(§3) LPS (1 μg·ml-1), LPS (1 μg·ml-1)+curcumin (10 μg·ml-1), LPS (1 μg·ml-1)+5-MTHF-Ca (10 μg·ml-1); experimental group: LPS (1 μg·ml-1)+curcumin (5 μg·ml-1)+5-MTHF-Ca (5 μg·ml-1). After 24 h, the culture supernatant was collected, and the cytokines IL-6, IL-1β and TNF-α were detected by ELISA.

IL-1β [2] = test: LPS-induced inflammatory response in astrocytes, IL-1β release (ELISA); type: cell-based, Kunming mice; settings: culture supernatant, LPS 1 μg·ml-1 + substance 10 μg·ml-1, 24 h, n=6
Excerpt: as §1, §2, §3

IL-6 = test: LPS-induced inflammatory response in astrocytes, IL-6 release (ELISA); type: cell-based, Kunming mice; settings: culture supernatant, LPS 1 μg·ml-1 + substance 10 μg·ml-1, 24 h, n=6
Excerpt: as §1, §2, §3

hyperlipemia rats [3] = test: Hyperlipemia rats (high-fat diet), body mass, liver mass, liver index, NASH pathology; type: in vivo, SD rats; settings: positive drug group, 60 d
Description: (§4) Experiment 5 Effect of 5-Methyltetrahydrofolate Calcium on Hyperlipemia Rats
(§5) 7 weeks later, one rat in the control group and one rat in the model group were sacrificed for liver tissue section to check fatty degeneration of hepatocytes (see Table 7) to confirm whether modeling was successful. The remaining 40 modeling rats were randomly divided into low-dose (1 mg·Kg−1) group, medium-dose (2 mg·Kg−1) group, high-dose (4 mg·Kg−1) group, positive drug group, and model group.
(§6) Bicyclol (place of origin: Beijing Xiehe Pharmaceutical Factory, specification: 25 mg/tablet, batch number: H20040467) was used as a positive drug.
(§7) After successful modeling, rats were administered drugs with dosages as prescribed for 60 consecutive days, continued to be fed with high-fat diet, and dissected on the 61st day. Liver was harvested and weighed, liver index was calculated, right lobe tissue was taken to prepare frozen sections, and fat staining was performed with Sudan III for pathological scoring according to guidelines for diagnosis and treatment of NAFLD. Another liver tissue was taken to prepare homogenate, and total cholesterol (TC), triglyceride (TG), malondialdehyde (MDA), and superoxide dismutase (SOD) in serum were detected.

[4] = system: alcoholic liver damage and fatty liver; test: Alcoholic fatty liver model, serum TG, TC, SOD, MDA and liver histopathology; type: in vivo, SD rats
Description: (§8) 96 SPF-grade SD rats were chosen in half female and half male with an average weight of 176-220 g at the beginning of the experiment. According to their weight, they were randomly divided into vehicle control group (purified water, ig), model control group (liquor, 10 ml·Kg−1), positive control group (bicyclol, 50 mg·Kg−1, ig), folic acid calcium salt high-dose group (4 mg·Kg−1), folic acid calcium salt medium-dose group (2 mg·Kg−1), folic acid calcium salt low-dose group (1 mg·Kg−1), in half female and half male, and 16 rats in each group. Purified water was used as a negative control, and bicyclol (place of origin: Beijing Xiehe Pharmaceutical Factory, specification: 25 mg/tablet, batch number: H20040467) was used as a positive control drug. Route of administration: all were administered by oral gavage. Dosage of administration: 1 mg·Kg−1, 2 mg·Kg−1, and 4 mg·Kg−1. Frequency of administration: once a day for 60 consecutive days. Erguotou (batch number: 201603092, specification: 2L, place of origin: Beijing Shunxin Agriculture Co., Ltd.) model establishing method: gavage with diluted 56-degree Erguotou twice a day for 60 consecutive days.
(§9) Method of administration: administration started at prescribed doses on the day of modeling for 60 consecutive days and ended at the 60th day. At the same time, rats in each group were weighed every other week during administration period to monitor their body weight changes. On the 61st day, rats were dissected and serum was collected for determination of triglyceride (TG), total cholesterol (TC), malondialdehyde (MDA), superoxide dismutase (SOD) and liver histopathologic examination. The brain tissue of rats was taken out, and hippocampus tissue was separated on ice plate, prepared to homogenate with a mass fraction of 10% with purified water, then the homogenate was centrifuged to obtain supernatant. ELISA was used to detect the levels of inflammatory factors TNF-α and IL-1β in hippocampus tissue with continuous spectrum scanning microplate reader.

IL-1β [5] = test: Alcoholic fatty liver model, IL-1β in hippocampus tissue (ELISA); type: in vivo, SD rats; settings: liquor model, 50 mg·kg−1·d−1 ig 60 d, n=16
Description: as §8, with “According” for “96 SPF-grade SD rats were chosen in half female and half male with an average weight of 176-220 g at the beginning of the experiment. According”, “days.” for “days. Erguotou (batch number: 201603092, specification: 2L, place of origin: Beijing Shunxin Agriculture Co., Ltd.) model establishing method: gavage with diluted 56-degree Erguotou twice a day for 60 consecutive days.”
as §9

[6] = Alcoholic fatty liver model, body weight during administration period; type: in vivo, SD rats; settings: liquor model, 50 mg·kg−1·d−1 ig
Description: as §8, with “According” for “96 SPF-grade SD rats were chosen in half female and half male with an average weight of 176-220 g at the beginning of the experiment. According”, “days.” for “days. Erguotou (batch number: 201603092, specification: 2L, place of origin: Beijing Shunxin Agriculture Co., Ltd.) model establishing method: gavage with diluted 56-degree Erguotou twice a day for 60 consecutive days.”
as §9

TNF-α [7] = test: Alcoholic fatty liver model, TNF-α in hippocampus tissue (ELISA); type: in vivo, SD rats; settings: liquor model, 50 mg·kg−1·d−1 ig 60 d, n=16
Description: as §8, with “According” for “96 SPF-grade SD rats were chosen in half female and half male with an average weight of 176-220 g at the beginning of the experiment. According”, “days.” for “days. Erguotou (batch number: 201603092, specification: 2L, place of origin: Beijing Shunxin Agriculture Co., Ltd.) model establishing method: gavage with diluted 56-degree Erguotou twice a day for 60 consecutive days.”
as §9

hyperlipemia rats [8] = test: Hyperlipemia rats (high-fat diet), biochemical indexes TG, TC, SOD, MDA; type: in vivo, SD rats; settings: 50 mg·kg−1·d−1, 60 d
Description: as §4, §5, §6, §7

[9] = day 61, liquor model, 50 mg·kg−1·d−1 ig 60 d, n=16
[10] = serum day 61, liquor model, 50 mg·kg−1·d−1 ig 60 d, n=16

Work on COc1cc(/C=C/C(=O)CC(=O)/C=C/c2ccc(O)c(OC)c2)ccc1O [Cur, curcumin, reference compound] yielded a TNF-α (TNF-α [1]) of 492.32 ± 8.92 pg/mL, an IL-1β (IL-1β [2]) of 742.12 ± 10.33 pg/mL and an IL-6 (IL-6) of 1003.97 ± 60.33 pg/mL.

In the case of COC(=O)c1cc(OC)c2c(c1-c1c(CO)cc(OC)c3c1OCO3)OCO2 [bicyclol, reference compound], the Body mass (hyperlipemia rats [3]; 8 cases) is reported as 453.8 ± 34.7 g, the Liver index (hyperlipemia rats [3]; 8 cases) is reported as 3.2 ± 0.4 and the Liver mass (hyperlipemia rats [3]; 8 cases) is reported as 14.6 ± 4.5 g. The “Pathological state (NASH)” value (hyperlipemia rats [3]; of 8 cases) was 2 cases, the MDA [4, 9] was 70.41 ± 20.33 nmol/mgprot and the SOD [4, 9] was 167.47 ± 18.91^ U/mgprot. For the same compound, the “Pathological examination of liver” value ([4]; liquor model, positive drug group 50 mg·Kg−1 ig 60 d) was “no hyperplasia of interstitial connective tissue and fatty degeneration of hepatocytes”, the TC [4, 10] was 1.45 ± 0.43 mmol/L and the TG [4, 10] was 1.03 ± 0.34 mmol/L. For the same compound, the “IL-1β in hippocampus tissue” value (IL-1β [5]) was 73.93 ± 9.37 μg · g^−1 prot, the Body weight ([6]; Week 0, n=16) was 188.19 g and the Body weight ([6]; Week 1, n=16) was 211.95 g. For the same compound, the Body weight ([6]; Week 2, n=16) was 279.31 g, the Body weight ([6]; Week 3, n=16) was 292.58 g and the Body weight ([6]; Week 4, n=16) was 317.80 g. For the same compound, the Body weight ([6]; Week 5, n=16) was 313.19 g, the Body weight ([6]; Week 6, n=16) was 333.57 g and the Body weight ([6]; Week 7, n=16) was 360.01 g. The Body weight ([6]; Week 8, n=16) was 380.37 g, the “TNF-α in hippocampus tissue” value (TNF-α [7]) was 286.32 ± 43.79.* μg · g^−1 prot and the MDA (hyperlipemia rats [8]) was 72.39 ± 19.23 nmol/mgprot. For the same compound, the SOD (hyperlipemia rats [8]) was 157.41 ± 16.45^ U/mgprot, the TC (hyperlipemia rats [8]) was 1.45 ± 0.63 mmol/L and the TG (hyperlipemia rats [8]) was 1.23 ± 0.35 mmol/L.
